Data published in patent publication US6328728A, “Composition and method for enhancing electrotransport agent delivery” (Alza Corporation, priority 1997, dated 2001).

Experiment: Measurement of circular dichroism (mean residue ellipticity at 222 nm)
Type: physicochemical
Conditions: 32° C.
Text: In general, the structure of a polypeptide in an aqueous buffered solution is in constant flux between portions thereof being random coil and alpha-helix configurations. For the polypeptides used in the following examples, the predominant structure is a random coil since the alpha-helix configuration is unstable in the absence of bound surfactant. According to the present invention adding surfactant to an aqueous solution of a polypeptide stabilizes the alpha-helix configuration. Circular dichroism is a measurement of the amount of the alpha-helix configured polypeptide present in the solution. Thus, circular dichroism provides an indirect measurement of the degree of binding of the surfactant to the polypeptide. (See, for example, Epand R. M., Epand R. F., Orlowski R. C., Schuleter R. J., Boni L. T. and Hui S. W., Biochemistry 22, 5074-5084 (1983); Hui, S. W., Epand R. M., Dell K. R., Epand R. F. and Orlowski R. C., Biochimica Biophysica Acta 772, 264-272 (1984); Epand R. M., Epand R. F., and Orlowski R. C., International Journal Peptide Protein Research 25 105-111; Epand R. M., Epand R. F., Orlowski R. C., Seyler J. K. and Colescott R. L., Biochemistry 25, 1964-1968; Epand R. M., Seyler J. K. and Orlowski R. C., European Journal Biochemistry 159, 125-127 (1986); Wiersema P. H., Loeb A. L. and Overbeek, J., Colloid Interface Science 22, 78-99 (1966)).
The surfactant/peptide circular dichroism (CD) spectra were obtained in a 2 mm path-length cell (110-Q-2 Model, AVIV, Lakewood, N.J.) at 32° C. The cell was initially loaded with 0.60 mL of a solution containing about 0.25 mg/mL of the peptide in 10 mM sodium chloroacetate (pH 3.5) or 10 mM sodium borate (pH 9.0). The buffers were selected to minimize the effect of the temperature on the pH of the solution and to minimize light absorption, thereby optimizing the signal-to-noise ratio (SNR). The peptide concentration was determined by spectrophotometry, with log-log correction for light scattering. The surfactant concentration was increased step-wise by titration of concentrated surfactant stock directly into the CD cell, followed by eight inversions of the cell, with the air bubble providing the mixing turbulence. After mixing, the cell was placed into the AVIV 62 CD spectrometer (AVIV, Lakewood, N.J.). In order to approximate temperature and chemical equilibrium, the sample remained in the spectrometer 5 minutes before a reading was taken. The CD spectrum was taken using a band pass of 1 nm, a data interval of 1 nm, and a data averaging time of 10 seconds. The mean residue ellipticity is the ellipticity divided by the path length in cm times the amino acid residue concentration in decimoles/cm^3. See Methods in Enzymology, Vol 130, pp 208-269, Yang et al, "Calculation of Protein Conformation from Circular Dichroism" (1986).
The measurement procedures described above were conducted on an aqueous solution of the protein insulinotropin, with TWEEN® 20 (MW=1126 g/mol) as the surfactant, with the following modifications. The insulinotropin donor solution concentration was 0.12 mg/mL. One test was run in 10 mM sodium borate at pH 9.0 and another test in 10 mM sodium chloroacetate at pH 3.5.
Fractional changes (%δ) are defined as the difference between the reading at a given surfactant concentration (Ec) minus the reading at zero surfactant (E0), the quantity divided by the difference between the reading at saturated surfactant concentration (Es) minus the reading at zero surfactant (E0), i. e. %δ=(Ec -E0)/(Es-E0).
The measurement procedures described earlier were conducted on an aqueous solution of insulinotropin as the agent, and TWEEN® 40 (molecular weight 1282 g/mol) as the surfactant with the following changes. The insulinotropin concentration was initially 0.29 mg/mL, and 0.21 mg/mL after the final TWEEN® 40 addition and the temperature was held at 32° C. Two tests were conducted at two different concentrations of TWEEN® 40. […]

Salmon Calcitonin [reference compound]
Ellipticity (mean residue at 222 nm) (pH 3.5, 12 mM sodium chloroacetate, dodecyl sulfobetaine 0, calcitonin 0.087 mM): -4052 deg-cm^2 /dmol | Ellipticity (mean residue at 222 nm) (pH 3.5, 12 mM sodium chloroacetate, dodecyl sulfobetaine 2.44 mM, calcitonin 0.085 mM): -4270 deg-cm^2 /dmol | Ellipticity (mean residue at 222 nm) (pH 3.5, 12 mM sodium chloroacetate, dodecyl sulfobetaine 4.76 mM, calcitonin 0.083 mM): -7984 deg-cm^2 /dmol | Ellipticity (mean residue at 222 nm) (pH 3.5, 12 mM sodium chloroacetate, dodecyl sulfobetaine 5.52 mM, calcitonin 0.082 mM): -8744 deg-cm^2 /dmol | Ellipticity (mean residue at 222 nm) (pH 3.5, 12 mM sodium chloroacetate, dodecyl sulfobetaine 6.25 mM, calcitonin 0.081 mM): -9436 deg-cm^2 /dmol | Ellipticity (mean residue at 222 nm) (pH 3.5, 12 mM sodium chloroacetate, dodecyl sulfobetaine 7.69 mM, calcitonin 0.080 mM): -10475 deg-cm^2 /dmol | Ellipticity (mean residue at 222 nm) (pH 3.5, 12 mM sodium chloroacetate, dodecyl sulfobetaine 9.09 mM, calcitonin 0.079 mM): -11072 deg-cm^2 /dmol | Ellipticity (mean residue at 222 nm) (pH 3.5, 12 mM sodium chloroacetate, dodecyl sulfobetaine 10.4 mM, calcitonin 0.078 mM): -11460 deg-cm^2 /dmol | Ellipticity (mean residue at 222 nm) (pH 3.5, 12 mM sodium chloroacetate, dodecyl sulfobetaine 13.0 mM, calcitonin 0.076 mM): -11924 deg-cm^2 /dmol | Ellipticity (mean residue at 222 nm) (pH 3.5, 12 mM sodium chloroacetate, dodecyl sulfobetaine 15.5 mM, calcitonin 0.073 mM): -12070 deg-cm^2 /dmol | Ellipticity (mean residue at 222 nm) (pH 3.5, 12 mM sodium chloroacetate, dodecyl sulfobetaine 21.1 mM, calcitonin 0.069 mM): -12285 deg-cm^2 /dmol | Ellipticity (mean residue at 222 nm) (pH 3.5, 12 mM sodium chloroacetate, dodecyl sulfobetaine 27.7 mM, calcitonin 0.063 mM): -12133 deg-cm^2 /dmol | Ellipticity (mean residue at 222 nm) (pH 5.0, 4 mM piperazine-HCl, dodecyl sulfobetaine 0, calcitonin 0.076 mM): -3919 deg-cm^2 /dmol | Ellipticity (mean residue at 222 nm) (pH 5.0, 4 mM piperazine-HCl, dodecyl sulfobetaine 0.83 mM, calcitonin 0.076 mM): -3950 deg-cm^2 /dmol | Ellipticity (mean residue at 222 nm) (pH 5.0, 4 mM piperazine-HCl, dodecyl sulfobetaine 1.64 mM, calcitonin 0.075 mM): -4011 deg-cm^2 /dmol | Ellipticity (mean residue at 222 nm) (pH 5.0, 4 mM piperazine-HCl, dodecyl sulfobetaine 3.23 mM, calcitonin 0.074 mM): -5209 deg-cm^2 /dmol | Ellipticity (mean residue at 222 nm) (pH 5.0, 4 mM piperazine-HCl, dodecyl sulfobetaine 4.76 mM, calcitonin 0.073 mM): -7108 deg-cm^2 /dmol | Ellipticity (mean residue at 222 nm) (pH 5.0, 4 mM piperazine-HCl, dodecyl sulfobetaine 6.25 mM, calcitonin 0.072 mM): -8348 deg-cm^2 /dmol | Ellipticity (mean residue at 222 nm) (pH 5.0, 4 mM piperazine-HCl, dodecyl sulfobetaine 7.69 mM, calcitonin 0.071 mM): -9127 deg-cm^2 /dmol | Ellipticity (mean residue at 222 nm) (pH 5.0, 4 mM piperazine-HCl, dodecyl sulfobetaine 9.77 mM, calcitonin 0.069 mM): -9915 deg-cm^2 /dmol | Ellipticity (mean residue at 222 nm) (pH 5.0, 4 mM piperazine-HCl, dodecyl sulfobetaine 12.4 mM, calcitonin 0.067 mM): -10469 deg-cm^2 /dmol | Ellipticity (mean residue at 222 nm) (pH 5.0, 4 mM piperazine-HCl, dodecyl sulfobetaine 18.4 mM, calcitonin 0.062 mM): -10999 deg-cm^2 /dmol | Ellipticity (mean residue at 222 nm) (pH 5.0, 4 mM piperazine-HCl, dodecyl sulfobetaine 26.4 mM, calcitonin 0.056 mM): -11188 deg-cm^2 /dmol | Ellipticity (mean residue at 222 nm) (pH 5.0, 4 mM piperazine-HCl, dodecyl sulfobetaine 35.8 mM, calcitonin 0.049 mM): -11051 deg-cm^2 /dmol | Ellipticity (mean residue at 222 nm) (pH 6.5, 15 mM sodium cacodylate, dodecyl sulfobetaine 0, calcitonin 0.071 mmol/l): -4569 deg-cm^2 /dmol | Ellipticity (mean residue at 222 nm) (pH 6.5, 15 mM sodium cacodylate, dodecyl sulfobetaine 3.28 mmol/l, calcitonin 0.070 mmol/l): -6725 deg-cm^2 /dmol | Ellipticity (mean residue at 222 nm) (pH 6.5, 15 mM sodium cacodylate, dodecyl sulfobetaine 6.45 mmol/l, calcitonin 0.068 mmol/l): -10182 deg-cm^2 /dmol | Ellipticity (mean residue at 222 nm) (pH 6.5, 15 mM sodium cacodylate, dodecyl sulfobetaine 9.52 mmol/l, calcitonin 0.067 mmol/l): -11095 deg-cm^2 /dmol | Ellipticity (mean residue at 222 nm) (pH 6.5, 15 mM sodium cacodylate, dodecyl sulfobetaine 12.5 mmol/l, calcitonin 0.066 mmol/l): -11386 deg-cm^2 /dmol | Ellipticity (mean residue at 222 nm) (pH 6.5, 15 mM sodium cacodylate, dodecyl sulfobetaine 18.2 mmol/l, calcitonin 0.064 mmol/l): -11744 deg-cm^2 /dmol | Ellipticity (mean residue at 222 nm) (pH 6.5, 15 mM sodium cacodylate, dodecyl sulfobetaine 28.6 mmol/l, calcitonin 0.061 mmol/l): -11862 deg-cm^2 /dmol | Ellipticity (mean residue at 222 nm) (pH 6.5, 15 mM sodium cacodylate, dodecyl sulfobetaine 42.1 mmol/l, calcitonin 0.056 mmol/l): -11844 deg-cm^2 /dmol
